3 molecules from US20060099586A1, “Eef1a2 for use in the prognosis, diagnosis, and treatment of cancer” (priority 2002, published 2006) can be followed below.

In data set [1] the test system is NIH 3T3 cells ectopically expressing EEF1A2. The experiment in a line: Drug-induced apoptosis in NIH 3T3 cells ectopically expressing EEF1A2. The format is cell-based, mouse. From the text: Patients with tumor samples that are positive for EEF1A2 are expected to survive for a shorter period of time as compared to patients with tumor sample negative for EEF1A2. Prognostic information relating to EEF1A2-gene amplification and/or EEF1A2 protein expression can be used to enhance clinical decision-making and to select appropriate treatment regimes. NIH 3T3 cells ectopically expressing EEF1A2 are resistant to the apoptosis-induced by cisplatin and staurosporine. Further, mice lacking EEF1A2 show increased lymphoid apoptosis. Accordingly, it is believed that EEF1A2 modulates the sensitivity of cancer cells to selected treatments.

A further data set deals with EEF1A2 mRNA. As to the kind of experiment: EEF1A2 mRNA levels after antisense oligonucleotide treatment of human Ramos cells. Format: cell-based. From the text: (§1) Antisense inactivation of EEF1A2 was achieved using two EEF1A2-specific phosphorothioated antisense oligonucleotides. Phosphorothioated DNA oligonucleotides were used as these modified oligonucleotides are non-toxic in humans, nuclease resistant, stable in vivo and in vitro, are readily taken up by cells and activate rapid degradation of the mRNA target (Gewirtz et al. Blood 1998 92:712-736; Agrawal et al. Proc. Natl. Acad. Sci. USA 1990 87:1401-1405). However, as will be understood by those of skill in the art upon reading this disclosure, other modifications well known to those skilled in the art can be used.
(§2) Both antisense oligonucleotides decreased EEF1A2 mRNA levels in human Ramos cells. mRNA levels of EEF1A1 were not decreased by administration of these antisense oligonucleotides. A control sequence, GGTTGCTGTGGGCTTGAGT (SEQ ID NO:4) had no effect on mRNA levels of EEF1A2 or EEF1A1 in the human Ramos cells.

In the next data set the test system is EEF1A1 mRNA. As to the kind of experiment: EEF1A1 mRNA levels after antisense oligonucleotide treatment of human Ramos cells. The format is cell-based.
Excerpt: as §1, §2

On to `N.N.[Cl][Pt][Cl]` [cisplatin], for which the “apoptosis induced by the drug” value in data set [1] is given as “resistant”.
The same measure, in the same setting: as for `CN[C@@H]1C[C@H]2O[C@@](C)([C@@H]1OC)n1c3ccccc3c3c4c(c5c6ccccc6n2c5c31)C(=O)NC4` [staurosporine], the entry is “resistant”.
“SEQ ID NO:4: control sequence GGTTGCTGTGGGCTTGAGT (listed as DNA, chemistry not given here)”: the “effect on EEF1A2 mRNA levels” value in the data set on EEF1A2 mRNA is “no effect”. Also, the “effect on EEF1A1 mRNA levels” value with EEF1A1 mRNA is recorded as “no effect”.
